Source: patent US20220324865A1 (Bayer Aktiengesellschaft, priority 2018, published 2022)

The compounds below were run against T1, human EP3 receptor (Homo sapiens, UniProt P43115) (assay: Cellular in vitro assay for determining EP3 receptor activity (human EP3 cell line, sulprostone-stimulated calcium luminescence)). Settings: CHO cells expressing human EP3 and mitochondrial Clytin; antagonist mode, sulprostone at EC50; read-out: EP3 CHO mtCLY ANTAG IC50.
T1 construct: expressed in transfected cells; host or cells: CHO K1 (Chinese Hamster Ovary), stably co-transfected with Galpha16 and mitochondrial clytin
T1 sequence (P43115 1-390): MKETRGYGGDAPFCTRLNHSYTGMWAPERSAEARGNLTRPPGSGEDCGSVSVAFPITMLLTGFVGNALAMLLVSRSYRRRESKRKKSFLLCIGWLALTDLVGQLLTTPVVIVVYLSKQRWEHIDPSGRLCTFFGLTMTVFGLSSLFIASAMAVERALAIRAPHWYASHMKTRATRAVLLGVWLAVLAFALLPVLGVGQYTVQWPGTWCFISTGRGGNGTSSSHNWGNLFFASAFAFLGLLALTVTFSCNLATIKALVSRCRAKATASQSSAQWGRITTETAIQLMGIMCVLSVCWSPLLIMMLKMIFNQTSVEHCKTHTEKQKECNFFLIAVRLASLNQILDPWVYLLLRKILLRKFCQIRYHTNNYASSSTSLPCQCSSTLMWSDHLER
Assay type: cell-based
In short: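 Antagonist activity was measured as inhibition of the luminescent calcium signal elicited by EC50 sulprostone, following 10 min compound pretreatment. The cell line was recombinant CHO K1 co-expressing human EP3, Gα16 and the photoprotein Clytin, reconstituted with coelenterazine.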

Point of comparison: `COc1ccc(C(CCO)NC(=O)c2nn3c(C)c(-c4ccc5ccccc5c4)[nH]c(=O)c3c2C)cc1` (centres unmarked) [Example 3-37, N-[3-Hydroxy-1-(4-methoxyphenyl)propyl]-3,7-dimethyl-6-(2-naphthyl)-4-oxo-5H-pyrazolo[1,5-a]pyrazine-2-carboxamide], IC50 2.4 nM. Against it:
- Cc1ccc(-c2cn3nc(C(=O)N[C@@H](C)C4CC4)c(C(F)(F)F)c3c(=O)[nH]2)cc1C [6-119] — 2.2-fold lower, 1.09 nM
- Cc1ccc(-c2cn3nc(C(=O)N[C@@H](C)C4CC4)c(C(F)(F)F)c3c(=O)[nH]2)cc1Cl [6-164] — 2.3-fold lower, 1.04 nM
- Cc1ccc(CNC(=O)c2cc3c(=O)[nH]c(-c4ccc5ccccc5c4)cn3n2)cc1 [Example 2-14, N-(4-Methylbenzyl)-6-(2-naphthyl)-4-oxo-4,5-dihydropyrazolo[1,5-a]pyrazine-2-carboxamide] — 1.9-fold lower, 1.25 nM
- O=C(N[C@H](CCO)c1ccc(F)cc1)c1cc2c(=O)[nH]c(-c3ccc(Cl)c(Cl)c3)cn2n1 [6-635] — 1.7-fold higher, 4.05 nM
- C[C@H](NC(=O)c1nn2cc(-c3ccc(Cl)c(Cl)c3)[nH]c(=O)c2c1C1CC(F)(F)C1)C1CC1 [6-553] — within 1.5-fold, 2.8 nM
- CC[C@@H](C)NC(=O)c1nn2cc(-c3ccc(Cl)c(C)c3)[nH]c(=O)c2c1C1CC1 [6-332] — within 1.5-fold, 2 nM
- O=C(NC1CCN(CC(F)F)C1)c1nn2cc(-c3ccc4ccccc4c3)[nH]c(=O)c2c1C(F)(F)F (centres unmarked) [6-518] — within 1.5-fold, 1.7 nM
- COc1ccc(CNC(=O)c2nn3cc(-c4ccc5ccccc5c4)[nH]c(=O)c3c2C(C)C)cc1OC [Example 1-10, N-(3,4-Dimethoxybenzyl)-6-(naphthalen-2-yl)-4-oxo-3-(propan-2-yl)-4,5-dihydropyrazolo[1,5-a]-pyrazine-2-carboxamide] — 4.1-fold lower, 0.58 nM
- CCn1nccc1CNC(=O)c1nn2c(C)c(-c3ccc4ccccc4c3)[nH]c(=O)c2c1C [Example 1-68, N-[(1-Ethyl-1H-pyrazol-5-yl)methyl]-3,7-dimethyl-6-(naphthalen-2-yl)-4-oxo-4,5-dihydropyrazolo-[1,5-a]pyrazine-2-carboxamide] — 1.7-fold lower, 1.42 nM
- CC(C)c1c(C(=O)N[C@H](CCO)c2ccc(F)cc2)nn2cc(-c3cccc(Cl)c3)[nH]c(=O)c12 [6-682] — 2.2-fold lower, 1.09 nM
- Cc1ccc(-c2cn3nc(C(=O)N[C@@H](C)CO)c(C4CC4)c3c(=O)[nH]2)cc1C [Example 1-155, 3-Cyclopropyl-6-(3,4-dimethylphenyl)-N-[(2S)-1-hydroxpropan-2-yl]-4-oxo-4,5-dihydropyrazolo-[1,5-a]pyrazine-2-carboxamide] — 1.6-fold lower, 1.5 nM
- Cc1cc(-c2cn3nc(C(=O)NCCC(O)C(F)(F)F)c(C4CC4)c3c(=O)[nH]2)ccc1Cl (single isomer, unassigned) [6-310] — 2.6-fold lower, 0.91 nM
- COC[C@@H](NC(=O)c1nn2cc(-c3ccc4c(c3)ncn4C)[nH]c(=O)c2c1C1CC1)c1ccccc1 [6-600] — within 1.5-fold, 2.3 nM
- Cc1cccc2ncc(-c3cn4nc(C(=O)NCCn5ccc(C6CC6)n5)c(C(C)C)c4c(=O)[nH]3)cc12 [Example 4-40, N-[2-(3-Cyclopropyl-1H-pyrazol-1-yl)ethyl]-6-(5-methylquinolin-3-yl)-4-oxo-3-(propan-2-yl)-4,5-dihydropyrazolo[1,5-a]pyrazine-2-carboxamide] — 2.8-fold lower, 0.85 nM
- Cc1cccc(C)c1OCC(C)NC(=O)c1cc2c(=O)[nH]c(-c3ccc4ccccc4c3)cn2n1 (centres unmarked) [Example 2-30, N-[1-(2,6-Dimethylphenoxy)propan-2-yl]-6-(2-naphthyl)-4-oxo-4,5-dihydropyrazolo[1,5-a]pyrazine-2-carboxamide] — 2.3-fold higher, 5.45 nM
- Cc1cc(-c2cn3nc(C(=O)N[C@H](C)C(C)(C)C)c(C4CC4)c3c(=O)[nH]2)ccc1Cl [6-318] — within 1.5-fold, 3.2 nM
- Cc1ccc(-c2[nH]c(=O)c3c(C4CC4)c(C(=O)N[C@@H](c4ccc(F)cc4)C(C)(C)O)nn3c2C#N)cc1C [6-617] — 3.2-fold higher, 7.65 nM
- Cc1ccc(-c2cn3nc(C(=O)N[C@@H](C)C(C)C)c(C4CC4)c3c(=O)[nH]2)cc1Cl [6-252] — 2.9-fold lower, 0.84 nM
- Cc1ccc(-c2cn3nc(C(=O)NCC(O)C(F)(F)F)c(C4CC4)c3c(=O)[nH]2)cc1Cl (single isomer, unassigned) [6-260] — 2.9-fold lower, 0.82 nM
